Results as given in PubChem BioAssay (NCI).
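Cultured in 96-well plates, cells were exposed to test compound for 48 hours across five concentrations. At the GI50, growth is halved. Definition used: TGI = concentration required for complete inhibition of growth.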

Columns and labels:
Assay in all cases: NCI anticancer screen, dose series, 48 h
786-0 renal = tested on: 786-0 renal
A498 renal = tested on: A498 renal
A549 NSCLC = tested on: A549 NSCLC
ACHN renal = tested on: ACHN renal
BT-549 breast = tested on: BT-549 breast
CAKI-1 renal = tested on: CAKI-1 renal
CCRF-CEM leukemia = tested on: CCRF-CEM leukemia
COLO 205 colon = tested on: COLO 205 colon
DU-145 prostate = tested on: DU-145 prostate
EKVX NSCLC = tested on: EKVX NSCLC
HCC-2998 colon = tested on: HCC-2998 colon
HCT-116 colon = tested on: HCT-116 colon
HCT-15 colon = tested on: HCT-15 colon
HL-60(TB) leukemia = tested on: HL-60(TB) leukemia
HOP-62 NSCLC = tested on: HOP-62 NSCLC
HOP-92 NSCLC = tested on: HOP-92 NSCLC
HS 578T breast = tested on: HS 578T breast
HT29 colon = tested on: HT29 colon
IGROV1 ovarian = tested on: IGROV1 ovarian
K-562 leukemia = tested on: K-562 leukemia
KM12 colon = tested on: KM12 colon
LOX IMVI melanoma = tested on: LOX IMVI melanoma
M14 melanoma = tested on: M14 melanoma
MALME-3M melanoma = tested on: MALME-3M melanoma
MCF7 breast = tested on: MCF7 breast
MDA-MB-231 breast = tested on: MDA-MB-231 breast
MDA-MB-435 = tested on: MDA-MB-435
MOLT-4 leukemia = tested on: MOLT-4 leukemia
NCI-H226 lung = tested on: NCI-H226 lung
NCI-H23 lung = tested on: NCI-H23 lung
NCI-H460 lung = tested on: NCI-H460 lung
NCI-H522 lung = tested on: NCI-H522 lung
NCI/ADR-RES ovarian = tested on: NCI/ADR-RES ovarian
OVCAR-3 ovarian = tested on: OVCAR-3 ovarian
OVCAR-4 ovarian = tested on: OVCAR-4 ovarian
OVCAR-5 ovarian = tested on: OVCAR-5 ovarian
OVCAR-8 ovarian = tested on: OVCAR-8 ovarian
PC-3 prostate = tested on: PC-3 prostate
RPMI-8226 leukemia = tested on: RPMI-8226 leukemia
RXF 393 renal = tested on: RXF 393 renal
SF-268 CNS = tested on: SF-268 CNS
SF-295 CNS = tested on: SF-295 CNS
SF-539 CNS = tested on: SF-539 CNS
SK-MEL-2 melanoma = tested on: SK-MEL-2 melanoma
SK-MEL-28 melanoma = tested on: SK-MEL-28 melanoma
SK-MEL-5 melanoma = tested on: SK-MEL-5 melanoma
SK-OV-3 ovarian = tested on: SK-OV-3 ovarian
SN12C renal = tested on: SN12C renal
SNB-19 CNS = tested on: SNB-19 CNS
SNB-75 CNS = tested on: SNB-75 CNS
SR leukemia = tested on: SR leukemia
SW-620 colon = tested on: SW-620 colon
T-47D breast = tested on: T-47D breast
TK-10 renal = tested on: TK-10 renal
U251 CNS = tested on: U251 CNS
UACC-257 melanoma = tested on: UACC-257 melanoma
UACC-62 melanoma = tested on: UACC-62 melanoma
UO-31 renal = tested on: UO-31 renal

Q: Which results are given for `CC(C)(C)Cn1c(N)nc2ccc(-c3[nH]c(C(C)(C)C)nc3-c3ccc(F)cc3)nc21`?
A: GI50 (786-0 renal): 9.75 µM; TGI (786-0 renal): 25.9 µM; GI50 (A498 renal): 2140 nM; TGI (A498 renal): 18.2 µM; GI50 (A549 NSCLC): 8.38 µM; TGI (A549 NSCLC): 28.7 µM; GI50 (ACHN renal): 1040 nM; TGI (ACHN renal): 16.7 µM; GI50 (BT-549 breast): 12.1 µM; TGI (BT-549 breast): 26 µM; GI50 (CAKI-1 renal): 3.91 µM; TGI (CAKI-1 renal): 21.1 µM; GI50 (CCRF-CEM leukemia): 12.6 µM; TGI (CCRF-CEM leukemia): > 63 µM; GI50 (COLO 205 colon): 7.76 µM; TGI (COLO 205 colon): 21.7 µM; GI50 (DU-145 prostate): 10.6 µM; TGI (DU-145 prostate): 23.5 µM; GI50 (EKVX NSCLC): 3.19 µM; TGI (EKVX NSCLC): 18.8 µM; GI50 (HCC-2998 colon): 11.1 µM; TGI (HCC-2998 colon): 24.1 µM; GI50 (HCT-116 colon): 6.75 µM; TGI (HCT-116 colon): 23 µM; GI50 (HCT-15 colon): 4.9 µM; TGI (HCT-15 colon): 30.4 µM; GI50 (HL-60(TB) leukemia): 19.9 µM; TGI (HL-60(TB) leukemia): 81.4 µM; GI50 (HOP-62 NSCLC): 14.2 µM; TGI (HOP-62 NSCLC): 29 µM; GI50 (HOP-92 NSCLC): 3.41 µM; TGI (HOP-92 NSCLC): 26.3 µM; GI50 (HS 578T breast): 13.7 µM; TGI (HS 578T breast): 73 µM; GI50 (HT29 colon): 4.52 µM; TGI (HT29 colon): 19.3 µM; GI50 (IGROV1 ovarian): 2660 nM; TGI (IGROV1 ovarian): 16.4 µM; GI50 (K-562 leukemia): 3.73 µM; TGI (K-562 leukemia): > 72.8 µM; GI50 (KM12 colon): 10.3 µM; TGI (KM12 colon): 23.9 µM; GI50 (LOX IMVI melanoma): 12.8 µM; TGI (LOX IMVI melanoma): 27.5 µM; GI50 (M14 melanoma): 11.4 µM; TGI (M14 melanoma): 24.7 µM; GI50 (MALME-3M melanoma): 4.08 µM; TGI (MALME-3M melanoma): 18.1 µM; GI50 (MCF7 breast): 10.6 µM; TGI (MCF7 breast): 25.5 µM; GI50 (MDA-MB-231 breast): 12.3 µM; TGI (MDA-MB-231 breast): 29.5 µM; GI50 (MDA-MB-435): 11.2 µM; TGI (MDA-MB-435): 24.1 µM; GI50 (MOLT-4 leukemia): 7.7 µM; TGI (MOLT-4 leukemia): 36.9 µM; GI50 (NCI-H226 lung): 12.2 µM; TGI (NCI-H226 lung): 35.9 µM; GI50 (NCI-H23 lung): 13.9 µM; TGI (NCI-H23 lung): 31 µM; GI50 (NCI-H460 lung): 7.46 µM; TGI (NCI-H460 lung): 26.5 µM; GI50 (NCI-H522 lung): 8.5 µM; TGI (NCI-H522 lung): 23.8 µM; GI50 (NCI/ADR-RES ovarian): 8.67 µM; TGI (NCI/ADR-RES ovarian): 33.1 µM; GI50 (OVCAR-3 ovarian): 9.47 µM; TGI (OVCAR-3 ovarian): 23.7 µM; GI50 (OVCAR-4 ovarian): 13.3 µM; TGI (OVCAR-4 ovarian): 40.4 µM; GI50 (OVCAR-5 ovarian): 13.7 µM; TGI (OVCAR-5 ovarian): 29.3 µM; GI50 (OVCAR-8 ovarian): 10.8 µM; TGI (OVCAR-8 ovarian): 25.8 µM; GI50 (PC-3 prostate): 12.6 µM; TGI (PC-3 prostate): > 62.5 µM; GI50 (RPMI-8226 leukemia): 3.29 µM; TGI (RPMI-8226 leukemia): 28.4 µM; GI50 (RXF 393 renal): 4.04 µM; TGI (RXF 393 renal): 14.6 µM; GI50 (SF-268 CNS): 10.6 µM; TGI (SF-268 CNS): 28.7 µM; GI50 (SF-295 CNS): 7.82 µM; TGI (SF-295 CNS): 22 µM; GI50 (SF-539 CNS): 13.3 µM; TGI (SF-539 CNS): 28.5 µM; GI50 (SK-MEL-2 melanoma): 13.1 µM; TGI (SK-MEL-2 melanoma): 27.1 µM; GI50 (SK-MEL-28 melanoma): 11.6 µM; TGI (SK-MEL-28 melanoma): 23.8 µM; GI50 (SK-MEL-5 melanoma): 11 µM; TGI (SK-MEL-5 melanoma): 23 µM; GI50 (SK-OV-3 ovarian): 4.36 µM; TGI (SK-OV-3 ovarian): 18.5 µM; GI50 (SN12C renal): 5.57 µM; TGI (SN12C renal): 21.4 µM; GI50 (SNB-19 CNS): 11.7 µM; TGI (SNB-19 CNS): 24.8 µM; GI50 (SNB-75 CNS): 2300 nM; TGI (SNB-75 CNS): 16.8 µM; GI50 (SR leukemia): 10.5 µM; TGI (SR leukemia): 47.9 µM; GI50 (SW-620 colon): 13.6 µM; TGI (SW-620 colon): 30.1 µM; GI50 (T-47D breast): 5.34 µM; TGI (T-47D breast): 23.7 µM; GI50 (TK-10 renal): 4.56 µM; TGI (TK-10 renal): 18.9 µM; GI50 (U251 CNS): 10.8 µM; TGI (U251 CNS): 25.2 µM; GI50 (UACC-257 melanoma): 11.2 µM; TGI (UACC-257 melanoma): 23.9 µM; GI50 (UACC-62 melanoma): 10.1 µM; TGI (UACC-62 melanoma): 23.2 µM; GI50 (UO-31 renal): 406 nM; TGI (UO-31 renal): 15.1 µM
